This note sets out measurements from ChEMBL document CHEMBL5370573, “Isolation of Hydrazide-alkenes with Different Amino Acid Origins from an Azoxy-alkene-Producing Mutant of Streptomyces rochei 7434AN4” (J Nat Prod, 2023).

One may read the IC50 as the concentration that inhibits the measured activity by half. Usually inhibition stands for the percentage by which the read-out fell short of the control.

Structures are written as SMILES. ≈ marks a conversion by molar mass, not a printed value.

A short description of test [1]: Inhibition of quorum sensing system in Chromobacterium violaceum CV026 assessed as reduction in violacein production measured after 24 hrs.
Test [2] in a line: Inhibition of quorum sensing system in Chromobacterium violaceum CV026 assessed as reduction in violacein production at 1 mg/ml measured after 24 hrs relative to control.

In the case of `CCCC/C=C\[N+]([O-])=N\[C@H](C)[C@H](O)CO`, the IC50 in test [1] is 750 µg/mL (≈ 3.47 mM).
In the case of `CCCC/C=C\NN(C(C)=O)C(=O)C(C)CC` (stereo not drawn), the inhibition in test [2] came out at 40%.
Still for that read-out and setting: for `CCCC/C=C\NN(C(C)=O)C(=O)C(C)C` the value was 40%.
